According to patent publication US10577406B2, “FKBP-L polypeptides and uses in angiogenesis-mediated disorders” (ALMAC DISCOVERY LIMITED, priority 2006, dated 2020):
Ends that are not written are not given here.

How the values were obtained:
L132 cells = experiment: cDNA microarray analysis of gene expression after FKBP-L antisense; format: cell-based; conditions: 8 h after exposure, vs lipofectin only
Protocol: Total RNA was isolated from L132 cells, 8 h after exposure to FKBP-L antisense (FKBP-L antisense: 5′ ATG GCC AGG CTC CCG CTC 3′) (SEQ ID NO: 40) or lipofectin only as a control. Poly A+mRNA was extracted from total RNA samples using the Qiagen Oligotex kit (Qiagen, UK), according to the manufacturer's instructions. These mRNA samples (800 ng per sample) were sent to Incyte Genomics, USA where a UniGEM 2.0 microarray analysis was conducted.
Incyte's Lifearray chips enable the interrogation of up to 10,000 genes simultaneously, resulting in the comparison of gene expression levels in two different samples. Briefly, a standard reverse transcription reaction was carried out to convert both mRNA samples to cyanine-dye-labelled cDNA. mRNA from L132 cells treated with FKBP-L antisense oligonucleotides after 8 h was used to generate a Cyanine 3 (green) labelled probe and mRNA from L132 cells treated with lipofectin only after 8 hours was used to produce a Cyanine 5 (red) labelled probe. The two fluorescent probe samples were simultaneously applied to a single microarray chip containing numerous cDNA probes immobilised on a solid support in specific locations, where they competitively reacted with the arrayed cDNA molecules. Following incubation, the microarray was rinsed in a series of baths to ensure the removal of any unhybridised sample. The microarray was then captured as an image that was acquired using a scanner for fluorescent signal detection. This scanner generated data on the intensity of each spot by excitation of the fluorochromes on the array. Each element of the chip was scanned for the Cy3 (green) and then the Cy5 (red) fluorescent label to create electronic images for both dye channels. The final array images were analysed using the Incyte GEMTools software package.

HMEC-1 [1] = experiment: in vitro migration assay (wound closure / wound scrape), recombinant protein or peptides added to medium; format: cell-based, Human; conditions: wound scrape
Protocol: (§1) The in vitro migration assay used in these studies is a modified version of the method described by Ashton et al (1999). HMEC-1 were plated into individual chambers on a glass slide and grown to 90% confluence overnight. The medium was removed and the monolayer wounded. The monolayer was re-supplemented with fresh medium and the required volume of recombinant full length his-tagged FKBP-L protein (SEQ ID NO: 1) was added to give the required final concentration.
The monolayers were incubated for 7 hours after exposure to recombinant FKBP-L protein and then fixed in 4% PBS buffered paraformaldehyde. The extent of “wound” closure was blindly assessed microscopically by an independent investigator and quantified using a calibrated eyepiece graticule (1 mm/100 μm graduation) at 20× magnification (Olympus BX 50). The extent of closure in the FKBP-L treated slides was compared to time matched sham treated controls and the % inhibition of wound closure compared to time matched controls calculated.
The following studies were performed to determine the effect of a full length His-tagged recombinant FKBP-L protein on the wound closure assay measured as a function of time. Again, the in vitro migration assay used in these studies is a modified version of the method described by Ashton et al (1999). HMEC-1 were plated into individual chambers on a glass slide and grown to 90% confluence overnight. The medium was removed and the monolayer wounded. The monolayer was re-supplemented with fresh medium and the required volume of full length his-tagged recombinant FKBP-L (i.e., SEQ ID NO: 1) added to give the required final concentration 750 ngml^−1.
Slides were removed at fixed time points until complete closure of the wound, then fixed in 4% PBS buffered paraformaldehyde. The extent of “wound” closure was blindly assessed microscopically by an independent investigator and quantified using a calibrated eyepiece graticule (1 mm/100 μm graduation) at 20× magnification (Olympus BX 50). The extent of closure in the FKBP-L treated slides was compared to time matched sham treated controls and the % inhibition of wound closure compared to time matched controls calculated.
as §1, with “al. (1999) see supra.” for “al (1999).”, “the following peptides” for “recombinant full length his-tagged FKBP-L protein (SEQ ID NO: 1)”, “achieve a dose range from 10^−14-10^−6 M.” for “give the required final concentration.”
The monolayers were incubated for 7 h and then fixed in 4% PBS buffered paraformaldehyde. The extent of “wound” closure was blindly assessed microscopically by an independent investigator and quantified using a calibrated eyepiece graticule (1 mm/100 μm graduation) at 20× magnification (Olympus BX 50). The extent of closure in the FKBP-L treated slides was compared to time matched sham treated controls and the % inhibition of wound closure compared to time matched controls calculated.
The in vitro migration assay used in these studies is a modified version of the method described by Ashton et al. (1999) see supra. HMEC-1 were plated into individual chambers on a glass slide and grown to 90% confluence overnight. The medium was removed and the monolayers wounded. The monolayer was re-supplemented with fresh medium and the required volume of each peptide (i.e., peptides 1-17, SEQ ID NOS: 12-28; Table 4 below) was added to give the required final concentration (10^−14-10^−6 M).
The monolayers were incubated for 24 h and then fixed in 4% PBS buffered paraformaldehyde. The extent of “wound” closure was blindly assessed microscopically by an independent investigator and quantified using a calibrated eyepiece graticule (1 mm/100 μm graduation) at 20× magnification (Olympus BX 50). […]

HMEC-1 [2] = format: cell-based, Human; conditions: 18 h
Protocol: (§2) The in vitro tubule formation assay used in these studies is a modified version of the method described by Ashton et al (1999). In brief, assays were conducted using BD BioCoat™ Matrigel™ Matrix Thin Layer 24-well Multiwell Plates (BD Discovery Labware, Oxford, UK). The Matrigel™ was rehydrated with 500 μl MCDB-131 serum free medium and incubated at 37° C. for 30 minutes. Excess medium was removed and HMEC-1 were seeded at a density of 1×10^5 and the plates incubated at 37° C. under 5% CO2/95% air for 1 hour.
(§3) Increasing concentrations of the recombinant FKBP-L protein (SEQ ID NO: 1) were added to each individual well in triplicate (250-1000 ngml^−1) and the plate was incubated for a further 18 hours. The degree of tubule formation between adjacent HMEC-1 cells was assessed in each well in five fields of view, by counting the number of cell to cell contacts between different HMEC-1 cells in the designated area. An independent investigator assessed each well and the FKBP-L treated wells were compared to sham treated controls.
as §2, with “al.” for “al”, “min.” for “minutes.”, “h. Increasing concentrations of FKBP-L 24mer (SEQ ID NO: 10) and 1-57mer (SEQ ID NO: 6) from 10^−14-10^−6 M were used.” for “hour.”
as §3, with “The” for “Increasing concentrations of the recombinant FKBP-L protein (SEQ ID NO: 1) were added to each individual well in triplicate (250-1000 ngml^−1) and the”, “h.” for “hours.”

rat aortic ring = format: cell-based, Male Wistar rats
Protocol: Male Wistar rats were euthanised and the thoracic aorta was aseptically removed and sectioned into 1 cm thick rings. The rings were washed ten times in sterile medium to remove any bacteria and embedded into Matrigel on 24 well plates. The wells were supplemented with 2 ml of medium and increasing concentrations of full-length His-tagged recombinant FKBP-L protein (SEQ ID 1). The plate was incubated for 8 days and post incubation the Matrigel and rings were fixed in 4% PBS buffered paraformaldehyde and stored in PBS. The extent of vessel development was blindly assessed microscopically by an independent investigator and quantified using a calibrated eyepiece graticule (1 mm/100 μm graduation) at 20× magnification (Olympus BX 50). The extent of vessel length, maximum vessel length and number of vessels in each field of view was measured and compared to time matched sham controls and the percent (%) inhibition calculated. Male Wistar rats were euthanised and the thoracic aorta was aseptically removed and sectioned into 1 cm thick rings. The rings were washed ten times in sterile medium to remove any bacteria and embedded into Matrigel on 24 well plates. The wells were supplemented with 2 ml of medium and increasing concentrations of FKBP-L 24mer (SEQ ID NO: 10) and FKBP-L 1-57mer (SEQ ID NO: 6) and recombinant FKBP-L (SEQ ID NO:1). The plate was blindly assessed by an independent investigator and quantified using a calibrated eyepiece graticule (1 mm/100 μm graduation) at 20× magnification (Olympus BX 50). The extent of vessel length, maximum vessel length and number of vessels in each field of view was measured and compared to time matched sham controls and the % inhibition calculated. In order to determine whether the FKBP-L 24mer exerted a permanent or static effect on endothelial cell sprouting the rat aortic ring assay was used. Male Wistar rats were euthanised and the thoracic aorta was aseptically removed and sectioned into 1 cm thick rings. The rings were washed ten times in sterile medium to remove any bacteria and embedded into Matrigel on 24 well plates. The wells were supplemented with 2 ml of medium. The plates were incubated for up to 15 days. Each day the Matrigel rings were photographed and returned to their incubator. Two further experiments were carried out: (A) addition of FKBP-L 24mer to the medium after the vessels had grown for seven days; and (B) addition of FKBP-L 24mer to the medium at the initial embedding stage, with subsequent removal after seven days and replacement with fresh medium for a further seven days. The extent of vessel development was quantified using a calibrated eyepiece graticule (1 mm/100 μm graduation) at 20× magnification (Olympus BX 50), and measured electronically using Lucia imaging software. Vessel length was measured and compared to time matched sham controls and the percent (%) inhibition calculated.

HMEC-1 cells = experiment: MTT assay of cell viability/proliferation; conditions: 24mer 10^−5-10^−10M, 1-57mer 10^−9M and 10^−10M; 24 hours and 48 hours
Protocol: An MTT assay was used to measure cell viability/proliferation.
An MTT assay was used to measure cell viability and/or proliferation. Briefly, HMEC-1 cells were seeded (2.5×10^3) in 96 well plates and allowed to attach for 5 h. The cells were treated with FKBP-L 24mer (SEQ ID NO: 10) (10^−5-10^−10M), 1-57mer (SEQ ID NO: 6) (10^−9M and 10^−10M) or medium (control).
Post incubation the cells were exposed to a 5 mgml^−1 solution of 3-(-4,5-dimethylthiazol-2-yl) 2,5 diphenyl tetrazolium (MTT) for 4 h. The cells were aspirated and 200 μl of DMSO added to reduce the salt and induce a colour change.

[3] = tested on: DU145 human prostate tumor xenograft; experiment: prostate cancer xenograft model, intratumoral injection of plasmid complexes; format: in vivo, severe combined immunodeficient mice; conditions: twice weekly
Protocol: Du145 (prostate carcinoma) cells were obtained from Cancer Research UK and cultured in RPMI 1640 medium (Invitrogen) supplemented with 10% foetal calf serum. All cell lines were grown as monolayers, incubated at 37° C. under 5% CO2.
The FKBP-L/pcDNA3.1 plasmid was constructed by excision of the FKBPL cDNA using BamH1 (polynucleotide SEQ ID NO:31) from pUC18 and then directional ligation of FKBP-L into the BamHI restriction site of pcDNA3.1 (Invitrogen) as described in Example 1. The endostatin plasmid (for use as a postive anti-angiogenic control) hEndo XV/pcDNA3.1, was constructed by digesting the pBLAST hENDO XV plasmid (InVivoGen) with Hpa1 (Promega) and EcoV (Invitrogen) to release the hEndo XV insert. The hEndo XV insert was ligated directionally into the ECoRV restriction site of pcDNA3.1 (Invitrogen).
Nineteen (19) male immunocompromised (severe combined immunodeficient) mice were used (Harlan). The mice were aclimatized and caged in groups of 5 or less in a barrier care facility. Du145 (prostate carcinoma) cells were cultured as previously described. Subconfluent cells were harvested and the cell concentration was adjusted to 5×10^7 cells/ml in PBS. The dorsum of each mouse was shaved. […] The tumors were measured before each treatment. Tumor volume was calculated as: 4/3 πr^3 (where r=½ GMP and GMP=^3√{square root over (Length×Breadth×Height)}).

In the case of “5′ ATG GCC AGG CTC CCG CTC 3′ (antisense ATGGCCAGGCTCCCGCTC; listed as DNA, chemistry not given here; listed as Homo sapiens) [FKBP-L anti-sense oligonucleotides]”, the “Fold Increase (↑) or Decrease (↓): Annexin 2” value (L132 cells; decrease ↓) is reported as “↓ 1.6 Fold”, the “Fold Increase (↑) or Decrease (↓): CYR61” value (L132 cells; decrease ↓) is reported as “↓ 2.4 Fold” and the “Fold Increase (↑) or Decrease (↓): Tubulin α” value (L132 cells; decrease ↓) is reported as “↓ 1.5 Fold”. For the same substance, the “Fold Increase (↑) or Decrease (↓): Tubulin β” value (L132 cells; decrease ↓) was “↓ 1.5 Fold”, the “Fold Increase (↑) or Decrease (↓): Tubulin γ” value (L132 cells; decrease ↓) was “↓ 1.6 Fold” and the “Fold Increase (↑) or Decrease (↓): MMP-like 1” value (L132 cells; increase ↑) was “↑ 1.5 Fold”. For the same substance, the “Fold Increase (↑) or Decrease (↓): Microtubule associated protein 1B” value (L132 cells; increase ↑) was “↑ 1.6 Fold”, the “Fold Increase (↑) or Decrease (↓): PI3K” value (L132 cells; increase ↑) was “↑ 3.1 Fold” and the “Fold Increase (↑) or Decrease (↓): ROCK” value (L132 cells; increase ↑) was “↑ 1.6 Fold”. The “Fold Increase (↑) or Decrease (↓): Rho GTPase activating protein-” value (L132 cells; increase ↑) was “↑ 2.0 Fold” and the “Fold Increase (↑) or Decrease (↓): oligophrenin 1” value (L132 cells; increase ↑) was “↑ 1.7 Fold”.
“METPPVNTIGEKDTSQPQQEWEKNLRENLDSVIQIRQQPRDPPTETLELEVSPDPAS [FKBP-L 1-57mer]” was tested, and the “potency compared with the full length recombinant protein on a mole/mole basis” value (HMEC-1 [1]; 7 h) was “increased potency”, the EC50 (HMEC-1 [2]) was 0.0007 nM and the IC50 (rat aortic ring) was 0.53 nM. The “effect on proliferation of HMEC-1 cells compared to time-matched controls” value (HMEC-1 cells) was “neither of the peptides had any significant effect”.
With “RQQPRDPPTETLELEVSPD-OH (listed as Homo sapiens) [Pep 12]” the “activity relative to the FKBP-L 24mer” value (HMEC-1 [1]; 24 h) was “about the same as the FKBP-L 24mer”.
For endostatin, the tumor appearance [3] was “evidence of a necrotic center”.
